Here are results for 34 compounds from patent US6608082B1, “Treatment of erectile dysfunction using isoquinoline compound melanocortin receptor ligands” (Lion Bioscience AG, priority 1998, dated 2003).

This assay addresses T1, MCR-1 (Homo sapiens, UniProt Q01726).
T1 construct: expressed in transfected cells; host or cells: HEK 293
As to the kind of experiment: Melanocortin receptor binding assay, competition with 125I-HP 467, HEK 293 cells expressing hMCR-1. The note with it: 10 μM isoquinoline compound; for % Disp. of 125I-HP 467 (first of duplicate): HEK 293 cells expressing MCR-1, duplicate 1; for % Disp. of 125I-HP 467 (second of duplicate): HEK 293 cells expressing MCR-1, duplicate 2. Put shortly:
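Intact-cell competition binding, 2.5 hr at 37 °C, in PBS/10% calf serum/1 mM CaCl2; hMCR-4 cells at 4×10^3 per tube, hMCR-1 cells at 2×10^4 per tube. Filtration on BSA/CaCl2-soaked GF/B, cold 50 mM Tris pH 7.4 washes, scintillation count.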

T1 sequence (Q01726 whole entry): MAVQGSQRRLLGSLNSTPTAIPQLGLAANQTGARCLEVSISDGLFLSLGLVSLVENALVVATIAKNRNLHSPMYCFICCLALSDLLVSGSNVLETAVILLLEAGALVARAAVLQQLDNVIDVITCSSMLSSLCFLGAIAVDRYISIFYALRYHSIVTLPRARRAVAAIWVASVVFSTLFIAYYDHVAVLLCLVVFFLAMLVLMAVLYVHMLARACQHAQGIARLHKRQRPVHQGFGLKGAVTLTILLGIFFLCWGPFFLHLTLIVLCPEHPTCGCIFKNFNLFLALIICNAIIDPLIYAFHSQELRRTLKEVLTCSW

`CNC(CN)CCCCN1Cc2ccccc2C(CNC2CCCCC2)C1c1ccco1` (centres unmarked) [TRG 2405-197]: the “% Disp. of 125I-HP 467 (first of duplicate)” value is reported as 41.9% and the “% Disp. of 125I-HP 467 (second of duplicate)” value came out at 41.3%.

As to `CNC(CN)CCCCN1Cc2ccccc2C(CNC2CCCCC2)C1c1ncc[nH]1` (centres unmarked) [TRG 2405-198], the “% Disp. of 125I-HP 467 (first of duplicate)” value came to 65.4% and the “% Disp. of 125I-HP 467 (second of duplicate)” value is listed as 26.4%.

As to `CNC(CN)CCCCN1Cc2ccccc2C(CNC2CCCCC2)C1c1ccccc1OC` (centres unmarked) [TRG 2405-199], the “% Disp. of 125I-HP 467 (first of duplicate)” value came to 71.5% and the “% Disp. of 125I-HP 467 (second of duplicate)” value worked out at 71.4%.

Turning to `CNC(CN)CCCCN1Cc2ccccc2C(CNC2CCCCC2)C1c1ccc2ccccc2c1` (centres unmarked) [TRG 2405-200], the “% Disp. of 125I-HP 467 (first of duplicate)” value came out at 83.6% and the “% Disp. of 125I-HP 467 (second of duplicate)” value is on record as 81%.

For `CNC(CN)CCCCN1Cc2ccccc2C(CNC2CCCCC2)C1c1ccccn1` (centres unmarked) [TRG 2405-201], the “% Disp. of 125I-HP 467 (first of duplicate)” value is 61.1% and the “% Disp. of 125I-HP 467 (second of duplicate)” value came to 43.4%.

In the case of `CNC(CN)CCCCN1Cc2ccccc2C(CNC2CCCCC2)C1c1ccc2ccccc2n1` (centres unmarked) [TRG 2405-202], the “% Disp. of 125I-HP 467 (first of duplicate)” value worked out at 63% and the “% Disp. of 125I-HP 467 (second of duplicate)” value is 53.2%.

With `CNC(CN)CCCCN1Cc2ccccc2C(CNC2CCCCC2)C1c1cccs1` (centres unmarked) [TRG 2405-203], the “% Disp. of 125I-HP 467 (first of duplicate)” value is 58.1% and the “% Disp. of 125I-HP 467 (second of duplicate)” value was 49%.

For `CNC(CN)CCCCN1Cc2ccccc2C(CNC2CCCCC2)C1c1ccc(Cl)c(Cl)c1` (centres unmarked) [TRG 2405-206], the “% Disp. of 125I-HP 467 (first of duplicate)” value is recorded as 75% and the “% Disp. of 125I-HP 467 (second of duplicate)” value was determined as 69%.

On to `CNC(CN)CCCCN1Cc2ccccc2C(CNC2CCCCC2)C1c1cc(C(F)(F)F)cc(C(F)(F)F)c1` (centres unmarked) [TRG 2405-208], for which the “% Disp. of 125I-HP 467 (first of duplicate)” value is given as 79.5% and the “% Disp. of 125I-HP 467 (second of duplicate)” value came out at 67.5%.

Take `CNC(CN)CCCCN1Cc2ccccc2C(CNC2CCCCC2)C1c1cc(Cl)cc(Cl)c1` (centres unmarked) [TRG 2405-210]: the “% Disp. of 125I-HP 467 (first of duplicate)” value is 76.5% and the “% Disp. of 125I-HP 467 (second of duplicate)” value amounted to 69.6%.

`CNC(CN)CCCCN1Cc2ccccc2C(CNC2CCCCC2)C1c1cc(OC)cc(OC)c1` (centres unmarked) [TRG 2405-211]: the “% Disp. of 125I-HP 467 (first of duplicate)” value was 69.9% and the “% Disp. of 125I-HP 467 (second of duplicate)” value is 69%.

Turning to `CNC(CN)CCCCN1Cc2ccccc2C(CNC2CCCCC2)C1c1cc(C)c(O)c(C)c1` (centres unmarked) [TRG 2405-212], the “% Disp. of 125I-HP 467 (first of duplicate)” value was determined as 54.8% and the “% Disp. of 125I-HP 467 (second of duplicate)” value was determined as 45.8%.

Regarding `CNC(CN)CCCCN1Cc2ccccc2C(CNC2CCCCC2)C1c1cccc(Oc2ccc(OC)cc2)c1` (centres unmarked) [TRG 2405-214], the “% Disp. of 125I-HP 467 (first of duplicate)” value is given as 87.5% and the “% Disp. of 125I-HP 467 (second of duplicate)” value came out at 84.9%.

Take `CNC(CN)CCCCN1Cc2ccccc2C(CNC2CCCCC2)C1c1cccc(C(F)(F)F)c1` (centres unmarked) [TRG 2405-215]: the “% Disp. of 125I-HP 467 (first of duplicate)” value is reported as 75.9% and the “% Disp. of 125I-HP 467 (second of duplicate)” value came out at 70.8%.

Regarding `CNC(CN)CCCCN1Cc2ccccc2C(CNC2CCCCC2)C1c1ccc(F)c(Br)c1` (centres unmarked) [TRG 2405-216], the “% Disp. of 125I-HP 467 (first of duplicate)” value was determined as 78.9% and the “% Disp. of 125I-HP 467 (second of duplicate)” value worked out at 67.9%.

`CNC(CN)CCCCN1Cc2ccccc2C(CNC2CCCCC2)C1c1cccc(Br)c1` (centres unmarked) [TRG 2405-217]: the “% Disp. of 125I-HP 467 (first of duplicate)” value is reported as 74.5% and the “% Disp. of 125I-HP 467 (second of duplicate)” value turned out to be 68.8%.

Turning to `CNC(CN)CCCCN1Cc2ccccc2C(CNC2CCCCC2)C1c1cccc(CN)c1` (centres unmarked) [TRG 2405-219], the “% Disp. of 125I-HP 467 (first of duplicate)” value stood at 43.5% and the “% Disp. of 125I-HP 467 (second of duplicate)” value is given as 42.9%.

In the case of `CNC(CN)CCCCN1Cc2ccccc2C(CNC2CCCCC2)C1c1ccc(OC)c(F)c1` (centres unmarked) [TRG 2405-220], the “% Disp. of 125I-HP 467 (first of duplicate)” value came out at 67.3% and the “% Disp. of 125I-HP 467 (second of duplicate)” value is 60.6%.

As to `CNC(CN)CCCCN1Cc2ccccc2C(CNC2CCCCC2)C1c1cccc(F)c1` (centres unmarked) [TRG 2405-221], the “% Disp. of 125I-HP 467 (first of duplicate)” value was determined as 65.2% and the “% Disp. of 125I-HP 467 (second of duplicate)” value amounted to 62.7%.

Take `CNC(CN)CCCCN1Cc2ccccc2C(CNC2CCCCC2)C1c1ccoc1` (centres unmarked) [TRG 2405-222]: the “% Disp. of 125I-HP 467 (first of duplicate)” value was 34.3% and the “% Disp. of 125I-HP 467 (second of duplicate)” value stood at 39.3%.

Regarding `CNC(CN)CCCCN1Cc2ccccc2C(CNC2CCCCC2)C1c1cccc(O)c1` (centres unmarked) [TRG 2405-223], the “% Disp. of 125I-HP 467 (first of duplicate)” value turned out to be 33.6% and the “% Disp. of 125I-HP 467 (second of duplicate)” value is 21.2%.

As for `CNC(CN)CCCCN1Cc2ccccc2C(CNC2CCCCC2)C1c1cccc(OC)c1` (centres unmarked) [TRG 2405-225], the “% Disp. of 125I-HP 467 (first of duplicate)” value is given as 69.8% and the “% Disp. of 125I-HP 467 (second of duplicate)” value is reported as 69.4%.

As to `CNC(CN)CCCCN1Cc2ccccc2C(CNC2CCCCC2)C1c1cccc(C)c1` (centres unmarked) [TRG 2405-227], the “% Disp. of 125I-HP 467 (first of duplicate)” value is reported as 78.2% and the “% Disp. of 125I-HP 467 (second of duplicate)” value came out at 74.6%.

On to `CNC(CN)CCCCN1Cc2ccccc2C(CNC2CCCCC2)C1c1cccc([N+](=O)[O-])c1` (centres unmarked) [TRG 2405-229], for which the “% Disp. of 125I-HP 467 (first of duplicate)” value is 58.6% and the “% Disp. of 125I-HP 467 (second of duplicate)” value was 48.8%.

For `CNC(CN)CCCCN1Cc2ccccc2C(CNC2CCCCC2)C1c1cccc(Oc2ccccc2)c1` (centres unmarked) [TRG 2405-230], the “% Disp. of 125I-HP 467 (first of duplicate)” value was found to be 89.2% and the “% Disp. of 125I-HP 467 (second of duplicate)” value is recorded as 84.2%.

Consider `CNC(CN)CCCCN1Cc2ccccc2C(CNC2CCCCC2)C1c1cccnc1` (centres unmarked) [TRG 2405-231], for which the “% Disp. of 125I-HP 467 (first of duplicate)” value was 25% and the “% Disp. of 125I-HP 467 (second of duplicate)” value is given as 18.9%.

For the compound `CNC(CN)CCCCN1Cc2ccccc2C(CNC2CCCCC2)C1c1cnc2ccccc2c1` (centres unmarked) [TRG 2405-232], the “% Disp. of 125I-HP 467 (first of duplicate)” value is 36.1% and the “% Disp. of 125I-HP 467 (second of duplicate)” value is reported as 34.2%.

With `CNC(CN)CCCCN1Cc2ccccc2C(CNC2CCCCC2)C1c1ccc(OCCCN(C)C)cc1` (centres unmarked) [TRG 2405-234], the “% Disp. of 125I-HP 467 (first of duplicate)” value came to 52.9% and the “% Disp. of 125I-HP 467 (second of duplicate)” value is on record as 37.7%.

As for `CNC(CN)CCCCN1Cc2ccccc2C(CNC2CCCCC2)C1c1ccc(SC)cc1` (centres unmarked) [TRG 2405-237], the “% Disp. of 125I-HP 467 (first of duplicate)” value came out at 62.2% and the “% Disp. of 125I-HP 467 (second of duplicate)” value turned out to be 47.8%.

As to `CNC(CN)CCCCN1Cc2ccccc2C(CNC2CCCCC2)C1c1ccc(OC)cc1` (centres unmarked) [TRG 2405-240], the “% Disp. of 125I-HP 467 (first of duplicate)” value is reported as 69.6% and the “% Disp. of 125I-HP 467 (second of duplicate)” value was found to be 66.5%.

As to `CNC(CN)CCCCN1Cc2ccccc2C(CNC2CCCCC2)C1c1ccc(CN)cc1` (centres unmarked) [TRG 2405-244], the “% Disp. of 125I-HP 467 (first of duplicate)” value is on record as 29.7% and the “% Disp. of 125I-HP 467 (second of duplicate)” value turned out to be 22.5%.

Consider `CNC(CN)CCCCN1Cc2ccccc2C(CNC2CCCCC2)C1c1ccc(F)cc1` (centres unmarked) [TRG 2405-245], for which the “% Disp. of 125I-HP 467 (first of duplicate)” value was determined as 56.6% and the “% Disp. of 125I-HP 467 (second of duplicate)” value came out at 56.8%.

For `CNC(CN)CCCCN1Cc2ccccc2C(CNC2CCCCC2)C1c1ccc(C(C)C)cc1` (centres unmarked) [TRG 2405-247], the “% Disp. of 125I-HP 467 (first of duplicate)” value was found to be 83% and the “% Disp. of 125I-HP 467 (second of duplicate)” value is reported as 85.3%.

Take `CNC(CN)CCCCN1Cc2ccccc2C(CNC2CCCCC2)C1c1ccc(C)cc1` (centres unmarked) [TRG 2405-249]: the “% Disp. of 125I-HP 467 (first of duplicate)” value was 82.3% and the “% Disp. of 125I-HP 467 (second of duplicate)” value was determined as 83%.
